According to US20040162263A1, “Pharmaceutical formulations targeting specific regions of the gastrointesinal tract” (priority 2002, published 2004):
Values after ≈ are worked out from the molar mass of the structure shown. Values joined by “and” are separate entries in the source; they are usually repeats but may differ in a detail not shown here. Equal values may be shown once. Read-outs that look alike come from different tables or passages of the source.

Experiments:
[1] = Pharmacokinetics of decitabine in IVAP rabbit model; assay type: in vivo, rabbits; conditions: for bioavailability / AUC(0-inf) / half-life / MRT / TMAX / clearance / Vd / CMAX: rabbit; for MRT: read-out: Mean Residence Time; for clearance: read-out: Clearance (converted); for Vd: read-out: Volume (Vz); for CMAX: read-out: Mean Cmax
Protocol: Decitabine was administered intravenously to IVAP rabbits (n=3) at three doses: 0.75, 1.5 and 2.5 mg/kg. It was also administered at 2.5mg/kg orally and through previously implanted intestinal and vascular access ports in the portal vein (PV), upper small intestine (USI), lower small intestine (LSI) and colon (IC). All routes received the same simple formulation of raw compound dissolved in cold saline. Care was taken to insure doses were delivered immediately (less than 15 minutes) after dissolving the powder and that the liquid formulation was kept on ice up to the time of administration. Blood samples were taken simultaneously from the median auricular artery and through a port in the portal vein at predetermined time points. Plasma was separated and kept frozen at −70° C. until shipped to Xenobiotic Laboratories for analysis.
Pharmacokinetic parameters were calculated using non-compartmental models with the Winnonlin v3.1 program.

[2] = Physico-chemical properties of decitabine (solubility, stability); assay type: physicochemical
[3] = plasma, 2.5 mg/kg, 2.5 mg/kg IC
[4] = plasma, 2.5 mg/kg, 2.5 mg/kg LSI
[5] = plasma, 2.5 mg/kg, 2.5 mg/kg USI
[6] = plasma, 2.5 mg/kg, LSI 2.5 mg/kg
[7] = plasma, 2.5 mg/kg, USI 2.5 mg/kg
[8] = plasma, Overall mean of all doses and routes
[9] = plasma, iv, 0.75 mg/kg, 0.75 mg/kg IV
[10] = plasma, iv, 1.5 mg/kg, 1.5 mg/kg IV
[11] = plasma, iv, 2.5 mg/kg, 2.5 mg/kg IV
[12] = plasma, other: portal vein (PV) via implanted access port, 2.5 mg/kg, 2.5 mg/kg PV
[13] = plasma, other: portal vein (PV) via implanted access port, 2.5 mg/kg, PV
[14] = plasma, po, 2.5 mg/kg, 2.5 mg/kg Oral
[15] = plasma, po, 2.5 mg/kg, Oral 2.5 mg/kg

Individual systemic Bioavailability ([1]; PO 2.5 mg/kg, 2.5 mg/kg): 28.57% and 38.84%
systemic Bioavailability, Mean ([1]; PO 2.5 mg/kg, 2.5 mg/kg): 35.51%
Individual systemic Bioavailability ([1]; PV 2.5 mg/kg): 79.63% and 58.11% and 66.02%
systemic Bioavailability, Mean ([1]; PV 2.5 mg/kg): 67.92%
Individual systemic Bioavailability ([1]; USI 2.5 mg/kg): 84.33% and 72.64%
systemic Bioavailability, Mean ([1]; USI 2.5 mg/kg): 73.94%
bioavailability ([1]; plasma (systemic), 2.5 mg/kg, IC 2.5 mg/kg, read-out: systemic Bioavailability, Mean): 34.3%
bioavailability ([1]; plasma (systemic), 2.5 mg/kg, LSI 2.5 mg/kg, read-out: Individual systemic Bioavailability): 55%
bioavailability ([1]; plasma (systemic), 2.5 mg/kg, LSI 2.5 mg/kg, read-out: systemic Bioavailability, Mean): 50.4%
bioavailability ([1]; plasma (systemic), 2.5 mg/kg, USI 2.5 mg/kg, read-out: Individual systemic Bioavailability): 64.8%
bioavailability ([1]; plasma (systemic), po, 2.5 mg/kg, PO 2.5 mg/kg, read-out: Individual systemic Bioavailability): 39.1%
AUC(0-inf) ([1]; plasma (systemic, median auricular artery), 2.5 mg/kg, USI 2.5 mg/kg, read-out: Mean AUC0-inf in Systemic Samples): 837 ng·h/mL
AUC(0-inf) ([1]; plasma (systemic, median auricular artery), po, 2.5 mg/kg, Oral 2.5 mg/kg, read-out: Mean AUC0-inf in Systemic Samples): 402 ng·h/mL
half-life [1, 3]: 40.8 ± 0.6 min
MRT [1, 3]: 64.2 ± 1.2 min
half-life [1, 4]: 44.4 ± 3.6 min
MRT [1, 4]: 55.2 ± 5.4 min
half-life [1, 5]: 47.4 ± 5.4 min
MRT [1, 5]: 55.2 ± 4.8 min
TMAX ([1]; plasma, 2.5 mg/kg, IC 2.5 mg/kg): 15 min
clearance ([1]; plasma, 2.5 mg/kg, IC): 36.8 mL/min/kg
Vd ([1]; plasma, 2.5 mg/kg, IC): 2.16 L/kg
TMAX [1, 6]: 8.4 ± 5.76 min
CMAX [1, 6]: 736 ± 95.6 ng/mL
clearance ([1]; plasma, 2.5 mg/kg, LSI): 37.2 mL/min/kg
Vd ([1]; plasma, 2.5 mg/kg, LSI): 2.37 L/kg
bioavailability ([1]; plasma, 2.5 mg/kg, PV 2.5 mg/kg, read-out: systemic Bioavailability, Mean): 67.9%
TMAX [1, 7]: 4.98 min
CMAX [1, 7]: 1220 ± 280 ng/mL
bioavailability ([1]; plasma, 2.5 mg/kg, USI 2.5 mg/kg, read-out: systemic Bioavailability, Mean): 73.9%
clearance ([1]; plasma, 2.5 mg/kg, USI): 37.2 mL/min/kg
Vd ([1]; plasma, 2.5 mg/kg, USI): 2.51 L/kg
half-life [1, 8]: 43.2 ± 4.2 min
MRT [1, 8]: 55.8 ± 6.6 min
half-life [1, 9]: 43.8 ± 1.8 min
MRT [1, 9]: 50.4 ± 1.8 min
AUC(0-inf) ([1]; plasma, iv, 0.75 mg/kg, IV 0.75 mg/kg, read-out: IV AUC0-inf, Mean): 340 ng·h/mL
AUC(0-inf) ([1]; plasma, iv, 0.75 mg/kg, IV 0.75 mg/kg, read-out: IV AUC0-inf, individual): 323 ng·h/mL
half-life [1, 10]: 45 ± 2.4 min
MRT [1, 10]: 49.8 ± 1.8 min
AUC(0-inf) ([1]; plasma, iv, 1.5 mg/kg, IV 1.5 mg/kg, read-out: IV AUC0-inf, Mean): 574 ng·h/mL
AUC(0-inf) ([1]; plasma, iv, 1.5 mg/kg, IV 1.5 mg/kg, read-out: IV AUC0-inf, individual): 557 ng·h/mL
half-life [1, 11]: 35.4 ± 1.2 min
MRT [1, 11]: 49.8 ± 9 min
AUC(0-inf) ([1]; plasma, iv, 2.5 mg/kg, IV 2.5 mg/kg, read-out: IV AUC0-inf, Mean): 1060 ng·h/mL
AUC(0-inf) ([1]; plasma, iv, 2.5 mg/kg, IV 2.5 mg/kg, read-out: IV AUC0-inf, individual): 1170 ng·h/mL
clearance ([1]; plasma, iv, IV (overall)): 40 mL/min/kg
Vd ([1]; plasma, iv, IV (overall)): 2.41 ± 0.41 L/kg
bioavailability ([1]; plasma, other: portal vein (PV) port, 2.5 mg/kg, PV 2.5 mg/kg, read-out: systemic Bioavailability, Mean): 68%
half-life [1, 12]: 46.2 ± 4.2 min
MRT [1, 12]: 48 ± 3.6 min
clearance [1, 13]: 55.2 mL/min/kg
Vd [1, 13]: 3.63 L/kg
bioavailability ([1]; plasma, other: upper small intestine (USI) port, 2.5 mg/kg, USI 2.5 mg/kg, read-out: systemic Bioavailability, Mean): 74%
half-life [1, 14]: 41.4 ± 15.6 min
MRT [1, 14]: 72.6 ± 24 min
TMAX [1, 15]: 25.2 ± 8.4 min
CMAX [1, 15]: 335 ± 134 ng/mL
bioavailability ([1]; plasma, po, 2.5 mg/kg, PO 2.5 mg/kg, read-out: systemic Bioavailability, Mean): 35.5%
AUC(0-inf) ([1]; portal vein plasma, 2.5 mg/kg, LSI 2.5 mg/kg, read-out: Mean AUC0-inf in Portal Vein): 586 ng·h/mL
AUC(0-inf) ([1]; portal vein plasma, 2.5 mg/kg, USI 2.5 mg/kg, read-out: Mean AUC0-inf in Portal Vein): 833 ng·h/mL
AUC(0-inf) ([1]; portal vein plasma, po, 2.5 mg/kg, Oral 2.5 mg/kg, read-out: Mean AUC0-inf in Portal Vein): 397 ng·h/mL
AUC(0-inf) ([1]; systemic plasma (median auricular artery), 2.5 mg/kg, LSI 2.5 mg/kg, read-out: Mean AUC0-inf in Systemic Samples): 571 ng·h/mL
moisture at equilibrium of monohydrate formed on exposure to humidity [2]: 7%
solubility in alcohol [2]: highly soluble
solid remains stable ([2]; 15-30° C., not exposed to humidity): 36 months
degradation rate in aqueous environment ([2]; pH 7 and 2-8° C.): about 0.7 %/hr
degradation rate in aqueous environment ([2]; pH 7 and 25° C.): 2.5 %/hr
solubility ([2]; water): ~25 mg/mL (≈ 110 mM)
SMILES: Nc1ncn([C@H]2C[C@H](O)[C@@H](CO)O2)c(=O)n1 [decitabine, 5-aza-2′-deoxycytidine]
